According to ChEMBL document CHEMBL1201862, “PubChem BioAssay data set” (2004):
The source made the active and inactive calls.

Tests used:
INS1 [1] = assay: INS-1E survival protection against cytokine death – cell-based, luminescence, retest, dose response (AID 449756); type: functional; details: Rattus norvegicus;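 also: cell death triggered by IL-1 beta plus TNF-alpha plus IFN-gamma mixture; protective hits raise ATP signal compared with cytokine alone wells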
[2] = Trypanosoma cruzi growth suppression in host cells – NIH3T3 host cells, beta-gal luminescence, confirmation (AID 2044); type: functional, cell-based;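 also: intracellular parasites grown in NIH/3T3 mouse fibroblasts as host cells; luminescent beta-galactosidase reporter signal from transgenic T. cruzi replicating inside host cells; inhibitors lower the luminescence signal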
[3] = NIH3T3 cell viability loss – ATP luminescence, mouse fibroblasts, counter-screen, dose response (AID 2010); type: functional, cell-based;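 also: cells exposed to compound for about 90 hours before reading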
[4] = molecular target: Type-1 angiotensin II receptor (Homo sapiens, UniProt P30556); assay: antagonism of angiotensin II type 1 receptor – cell-based, uHTS hits, selectivity assay for APJ receptor antagonist project, dose response (AID 463214); type: functional;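 also: antagonist potency against angiotensin II stimulated AT1 response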
[5] = molecular target: T1, Short transient receptor potential channel 4 (Mus musculus, UniProt Q9QUQ5); assay: calcium entry via TRPC4 opening agents – cell-based, HEK293 TRPC4/mu-opioid, Fluo-4 calcium, dose response (AID 434937); type: functional
T1 sequence (Q9QUQ5 whole entry): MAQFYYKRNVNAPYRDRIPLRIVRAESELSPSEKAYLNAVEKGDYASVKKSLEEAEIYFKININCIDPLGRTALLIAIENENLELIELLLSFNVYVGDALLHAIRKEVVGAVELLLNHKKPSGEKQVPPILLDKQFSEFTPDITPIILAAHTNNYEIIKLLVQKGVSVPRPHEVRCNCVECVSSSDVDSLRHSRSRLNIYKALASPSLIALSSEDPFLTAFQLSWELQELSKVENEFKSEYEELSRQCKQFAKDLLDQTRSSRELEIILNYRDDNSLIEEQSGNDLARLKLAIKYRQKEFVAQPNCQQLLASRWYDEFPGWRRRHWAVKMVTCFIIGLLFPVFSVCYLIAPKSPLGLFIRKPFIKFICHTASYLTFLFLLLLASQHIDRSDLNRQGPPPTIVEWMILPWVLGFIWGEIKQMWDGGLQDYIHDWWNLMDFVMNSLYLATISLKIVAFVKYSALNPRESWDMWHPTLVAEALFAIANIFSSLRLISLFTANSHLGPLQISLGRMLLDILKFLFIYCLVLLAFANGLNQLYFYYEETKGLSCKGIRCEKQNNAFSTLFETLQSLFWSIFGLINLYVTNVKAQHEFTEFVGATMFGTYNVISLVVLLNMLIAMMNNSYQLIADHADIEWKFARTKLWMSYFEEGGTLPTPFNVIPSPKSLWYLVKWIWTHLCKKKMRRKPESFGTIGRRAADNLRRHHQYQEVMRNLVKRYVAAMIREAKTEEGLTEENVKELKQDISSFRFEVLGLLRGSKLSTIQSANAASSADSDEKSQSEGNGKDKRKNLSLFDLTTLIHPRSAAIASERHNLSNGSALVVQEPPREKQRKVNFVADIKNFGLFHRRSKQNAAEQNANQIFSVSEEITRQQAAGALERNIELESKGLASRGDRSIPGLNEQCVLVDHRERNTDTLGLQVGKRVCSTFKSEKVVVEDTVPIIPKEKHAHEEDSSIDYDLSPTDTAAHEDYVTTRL

Beta-galactosidase = Beta-galactosidase (Escherichia coli, UniProt Q8VNN2); assay: PubChem AID 485352; type: functional
Leucine aminopeptidase = molecular target: T2, Leucine aminopeptidase (Plasmodium falciparum 3D7, UniProt Q8IL11); assay: P. falciparum M17LAP inhibitors, primary screen, biochemical, fluorogenic H-Leu-NHMec substrate, 1536-well (AID 1619); type: functional
T2 sequence (Q8IL11 whole entry): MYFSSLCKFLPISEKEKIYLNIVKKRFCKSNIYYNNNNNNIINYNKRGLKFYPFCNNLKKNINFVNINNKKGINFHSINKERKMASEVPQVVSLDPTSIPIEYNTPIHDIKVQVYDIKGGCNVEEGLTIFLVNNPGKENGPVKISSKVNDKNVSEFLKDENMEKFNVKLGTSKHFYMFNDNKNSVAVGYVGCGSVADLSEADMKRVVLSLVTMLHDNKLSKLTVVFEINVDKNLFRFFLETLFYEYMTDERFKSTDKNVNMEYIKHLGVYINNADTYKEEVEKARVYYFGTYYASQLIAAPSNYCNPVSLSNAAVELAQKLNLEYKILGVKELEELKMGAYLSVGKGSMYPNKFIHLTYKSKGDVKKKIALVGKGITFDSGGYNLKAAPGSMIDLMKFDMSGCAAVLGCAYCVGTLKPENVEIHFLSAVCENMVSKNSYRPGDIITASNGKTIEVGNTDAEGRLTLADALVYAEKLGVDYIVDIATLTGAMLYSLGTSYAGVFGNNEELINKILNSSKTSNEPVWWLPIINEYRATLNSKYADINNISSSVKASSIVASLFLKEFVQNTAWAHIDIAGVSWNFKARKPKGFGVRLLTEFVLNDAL

[6] = molecular target: Beta-2 adrenergic receptor (Homo sapiens, UniProt P07550); assay: ADRB2 activation measured by internalization – cell-based, FAP fluorogen, flow cytometry, cherry pick 1, dose response (AID 588763); type: functional
[7] = molecular target: Apoptotic protease-activating factor 1 (Homo sapiens, UniProt O14727); type: functional
[8] = alpha-synuclein stem-loop luciferase translation blockers – H4 neuroglioma cells, luminescence, confirmation (AID 1988); type: functional, cell-based
[9] = luciferase reporter signal suppression in cells – H4 neuroglioma cells, luminescence, dose response (AID 1990); type: functional, cell-based
[10] = Luminescence Cell-Based Dose Response HTS to Identify Inhibitors of 5'UTR Stem-Loop Driven Prion Protein mRNA Translation in H4 Neuroglioblastoma Cells. [Related pubchem assays: 1827 (Project Summary), 1813 (Primary HTS)]; type: functional
[11] = molecular target: T3, Microphthalmia-associated transcription factor (Homo sapiens, UniProt O75030); assay: reducers of TRPM1 reporter luminescence, concentration series – cell-based, SK-MEL-5, cherry-picked, set 3, MITF inhibitor project, dose response (AID 493073); type: functional;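 also: SK-MEL-5 melanoma cells with luciferase driven by the MITF target TRPM1 promoter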
T3 sequence (O75030 whole entry): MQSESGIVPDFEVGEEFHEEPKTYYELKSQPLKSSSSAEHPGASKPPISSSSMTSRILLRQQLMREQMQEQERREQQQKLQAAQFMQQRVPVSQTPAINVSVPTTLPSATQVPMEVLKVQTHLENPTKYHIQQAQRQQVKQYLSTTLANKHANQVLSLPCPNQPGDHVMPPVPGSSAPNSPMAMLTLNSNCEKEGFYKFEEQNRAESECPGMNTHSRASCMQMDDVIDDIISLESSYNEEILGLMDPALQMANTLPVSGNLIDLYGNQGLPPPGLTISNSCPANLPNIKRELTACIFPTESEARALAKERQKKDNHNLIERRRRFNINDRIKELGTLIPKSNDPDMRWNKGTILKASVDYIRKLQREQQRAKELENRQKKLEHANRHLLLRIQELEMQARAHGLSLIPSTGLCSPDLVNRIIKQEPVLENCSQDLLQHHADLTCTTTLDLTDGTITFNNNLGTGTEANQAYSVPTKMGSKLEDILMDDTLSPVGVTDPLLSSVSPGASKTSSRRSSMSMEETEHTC

INS1 [12] = assay: INS-1E mitochondrial potential loss inhibitors – cell-based, JC-1 fluorescence, dry powder, set 2, dose response (AID 488867); type: functional; details: Rattus norvegicus
Paired box protein Pax-8 = Paired box protein Pax-8 (Homo sapiens, UniProt Q06710); assay: PAX8 transcriptional activity inhibition in RMG-I – RMG-I cells, luciferase, cherry-pick, dose response (AID 687027); type: functional, cell-based;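 also: luciferase reporter driven by Pax8 target thyroperoxidase promoter measured by SteadyGlo luminescence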
[13] = suppression of NO production in INS-1E cells – cell-based, Griess absorbance, dry powder, set 3, dose response (AID 488870); type: functional; details: Rattus norvegicus
INS1 [14] = assay: suppression of NO production in INS-1E cells – cell-based, Griess absorbance, dry powder, set 2, dose response (AID 488868); type: functional; details: Rattus norvegicus
Candida albicans [15] = assay: C. albicans growth inhibition with fluconazole – CaCi-2 strain, Alamar Blue, dry powder, set 4, dose response (AID 488943); type: functional, organism-based
NIH3T3 = assay: mammalian cell viability counter-check – Alamar Blue, fluconazole, dry powder, cytotoxicity control for antifungal drug resistance project, dose response (AID 488809); type: functional, cell-based; details: Mus musculus
Candida albicans [16] = assay: antifungal activity against resistant Candida strain – CaCi-8, fluconazole, Alamar Blue, dry powder, dose response (AID 488807); type: functional, organism-based
Candida albicans [17] = assay: fluconazole-resistant Candida strain growth inhibitors – CaCi-8 strain, dry powder, set 4, dose response (AID 488950); type: functional, organism-based
Candida albicans [18] = assay: single-agent toxicity toward C. albicans – CaCi-2 strain, no fluconazole, dry powder, set 4, counter-screen for reversing antifungal drug resistance, dose response (AID 488932); type: functional, organism-based
Hexokinase HKDC1 = molecular target: T4, Hexokinase HKDC1 (Homo sapiens, UniProt Q2TB90); assay: SAR analysis of small molecule inhibitors of hexokinase domain containing I (HKDC1). [Related pubchem assays (depositor defined):AID493160, AID493190]; type: functional
T4 sequence (Q2TB90 whole entry): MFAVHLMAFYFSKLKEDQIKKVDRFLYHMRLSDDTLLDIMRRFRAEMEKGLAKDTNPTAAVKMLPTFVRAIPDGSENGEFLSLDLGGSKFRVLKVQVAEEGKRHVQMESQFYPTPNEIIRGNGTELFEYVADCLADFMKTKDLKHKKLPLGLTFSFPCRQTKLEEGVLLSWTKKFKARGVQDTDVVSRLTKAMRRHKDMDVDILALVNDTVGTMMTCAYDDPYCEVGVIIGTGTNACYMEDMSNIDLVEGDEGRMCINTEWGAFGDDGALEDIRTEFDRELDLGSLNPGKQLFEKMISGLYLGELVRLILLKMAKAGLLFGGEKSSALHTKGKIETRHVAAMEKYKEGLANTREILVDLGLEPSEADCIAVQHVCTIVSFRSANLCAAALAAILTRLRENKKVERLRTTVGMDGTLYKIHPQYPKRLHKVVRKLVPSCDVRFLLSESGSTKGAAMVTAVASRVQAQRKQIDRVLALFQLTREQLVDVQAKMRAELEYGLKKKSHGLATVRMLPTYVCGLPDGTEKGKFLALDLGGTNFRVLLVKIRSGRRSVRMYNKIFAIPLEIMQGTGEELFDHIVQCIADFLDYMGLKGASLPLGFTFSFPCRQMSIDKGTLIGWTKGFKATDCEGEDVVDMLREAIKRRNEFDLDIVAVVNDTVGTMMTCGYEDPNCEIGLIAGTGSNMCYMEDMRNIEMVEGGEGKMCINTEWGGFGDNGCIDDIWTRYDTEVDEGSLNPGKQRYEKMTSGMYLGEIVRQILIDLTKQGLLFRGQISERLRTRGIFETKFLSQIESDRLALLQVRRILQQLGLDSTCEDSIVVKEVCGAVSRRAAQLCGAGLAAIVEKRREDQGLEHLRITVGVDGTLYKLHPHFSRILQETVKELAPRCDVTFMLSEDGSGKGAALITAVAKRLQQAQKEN

Hexokinase-1 = Hexokinase-1 (Homo sapiens, UniProt P19367); assay: SAR analysis of small molecule inhibitors of hexokinase domain containing I (HKDC1) in the hexokinase 1 selectivity assay. [Related pubchem assays (depositor defined):AID493160, AID493190]; type: functional
Chain of Hexokinase-1 (P19367 whole entry, the tested form may be a part): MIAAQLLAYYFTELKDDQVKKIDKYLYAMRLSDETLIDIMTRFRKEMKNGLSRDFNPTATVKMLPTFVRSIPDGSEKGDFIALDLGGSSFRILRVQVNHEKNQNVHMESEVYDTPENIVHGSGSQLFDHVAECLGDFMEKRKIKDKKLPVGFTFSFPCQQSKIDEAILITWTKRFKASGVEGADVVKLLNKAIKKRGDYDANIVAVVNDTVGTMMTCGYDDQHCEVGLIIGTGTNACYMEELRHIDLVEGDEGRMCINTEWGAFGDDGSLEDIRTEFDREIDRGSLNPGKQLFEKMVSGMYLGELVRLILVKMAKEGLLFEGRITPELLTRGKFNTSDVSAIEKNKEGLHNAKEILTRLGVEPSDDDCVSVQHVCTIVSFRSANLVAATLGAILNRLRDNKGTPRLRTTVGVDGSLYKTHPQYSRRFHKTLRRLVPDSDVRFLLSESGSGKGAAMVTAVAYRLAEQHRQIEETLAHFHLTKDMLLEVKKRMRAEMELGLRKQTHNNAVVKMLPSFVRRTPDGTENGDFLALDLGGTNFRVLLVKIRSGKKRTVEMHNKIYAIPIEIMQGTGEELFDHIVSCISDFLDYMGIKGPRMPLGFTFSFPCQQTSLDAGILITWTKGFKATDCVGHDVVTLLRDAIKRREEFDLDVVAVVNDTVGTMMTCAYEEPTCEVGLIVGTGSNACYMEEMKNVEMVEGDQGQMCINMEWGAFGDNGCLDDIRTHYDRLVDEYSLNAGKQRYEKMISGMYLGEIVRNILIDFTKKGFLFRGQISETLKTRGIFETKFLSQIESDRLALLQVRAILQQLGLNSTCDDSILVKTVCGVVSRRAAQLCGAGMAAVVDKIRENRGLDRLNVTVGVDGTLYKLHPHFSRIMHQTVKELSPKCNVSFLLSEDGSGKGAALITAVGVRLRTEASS

Chain of Type-1 angiotensin II receptor (P30556 whole entry): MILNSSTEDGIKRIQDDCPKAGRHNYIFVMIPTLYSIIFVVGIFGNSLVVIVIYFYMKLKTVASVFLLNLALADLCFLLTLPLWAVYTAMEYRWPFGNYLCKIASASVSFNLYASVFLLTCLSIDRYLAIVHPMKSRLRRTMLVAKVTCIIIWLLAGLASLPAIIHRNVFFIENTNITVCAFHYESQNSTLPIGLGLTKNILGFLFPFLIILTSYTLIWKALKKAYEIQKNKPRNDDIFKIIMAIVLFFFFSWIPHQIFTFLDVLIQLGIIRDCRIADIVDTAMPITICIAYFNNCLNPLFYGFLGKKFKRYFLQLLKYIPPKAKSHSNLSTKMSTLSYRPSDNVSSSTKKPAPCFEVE
Chain of Beta-2 adrenergic receptor (P07550 whole entry): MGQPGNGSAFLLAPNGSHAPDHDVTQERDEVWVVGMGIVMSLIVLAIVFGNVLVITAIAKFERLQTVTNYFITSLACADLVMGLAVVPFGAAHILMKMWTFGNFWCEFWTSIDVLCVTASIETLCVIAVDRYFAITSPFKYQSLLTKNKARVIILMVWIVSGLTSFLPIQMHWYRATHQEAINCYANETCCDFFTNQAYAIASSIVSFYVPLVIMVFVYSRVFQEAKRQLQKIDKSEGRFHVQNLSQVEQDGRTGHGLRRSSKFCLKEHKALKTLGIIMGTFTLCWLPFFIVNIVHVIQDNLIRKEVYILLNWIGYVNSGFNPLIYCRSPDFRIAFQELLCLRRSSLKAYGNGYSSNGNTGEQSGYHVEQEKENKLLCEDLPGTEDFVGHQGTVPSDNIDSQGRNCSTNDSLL
Chain of Apoptotic protease-activating factor 1 (O14727 whole entry): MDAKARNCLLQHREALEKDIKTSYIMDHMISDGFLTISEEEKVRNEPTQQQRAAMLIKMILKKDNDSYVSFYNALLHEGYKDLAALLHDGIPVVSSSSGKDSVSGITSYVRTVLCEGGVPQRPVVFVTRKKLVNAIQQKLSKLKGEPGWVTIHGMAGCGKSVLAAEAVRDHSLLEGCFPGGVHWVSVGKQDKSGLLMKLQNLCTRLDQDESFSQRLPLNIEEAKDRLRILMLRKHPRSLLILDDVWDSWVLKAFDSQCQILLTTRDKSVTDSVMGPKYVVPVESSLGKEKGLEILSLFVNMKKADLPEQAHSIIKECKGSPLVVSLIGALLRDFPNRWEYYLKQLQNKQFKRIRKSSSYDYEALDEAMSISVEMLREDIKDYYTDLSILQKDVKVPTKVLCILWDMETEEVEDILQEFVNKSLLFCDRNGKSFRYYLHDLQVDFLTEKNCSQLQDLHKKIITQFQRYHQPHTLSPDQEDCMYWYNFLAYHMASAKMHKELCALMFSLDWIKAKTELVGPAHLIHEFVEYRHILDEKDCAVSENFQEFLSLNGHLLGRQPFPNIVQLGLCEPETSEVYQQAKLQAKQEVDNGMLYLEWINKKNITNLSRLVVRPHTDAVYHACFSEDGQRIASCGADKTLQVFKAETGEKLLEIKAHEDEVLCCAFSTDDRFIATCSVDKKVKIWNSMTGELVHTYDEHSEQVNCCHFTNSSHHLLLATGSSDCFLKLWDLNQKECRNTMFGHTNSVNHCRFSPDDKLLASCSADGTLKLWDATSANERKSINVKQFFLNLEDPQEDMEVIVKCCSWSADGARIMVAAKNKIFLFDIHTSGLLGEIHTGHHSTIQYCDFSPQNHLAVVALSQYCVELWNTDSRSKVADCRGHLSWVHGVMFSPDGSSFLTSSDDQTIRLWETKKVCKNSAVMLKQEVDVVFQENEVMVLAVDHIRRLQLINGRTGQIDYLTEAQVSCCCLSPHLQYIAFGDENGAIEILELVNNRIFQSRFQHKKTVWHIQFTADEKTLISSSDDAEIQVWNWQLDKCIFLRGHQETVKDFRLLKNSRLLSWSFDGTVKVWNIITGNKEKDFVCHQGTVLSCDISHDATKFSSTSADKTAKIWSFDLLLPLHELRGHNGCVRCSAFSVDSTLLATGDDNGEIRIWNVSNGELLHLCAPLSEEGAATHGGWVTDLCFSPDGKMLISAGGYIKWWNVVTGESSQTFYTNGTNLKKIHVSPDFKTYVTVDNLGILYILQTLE
Chain of Beta-galactosidase (Q8VNN2 whole entry): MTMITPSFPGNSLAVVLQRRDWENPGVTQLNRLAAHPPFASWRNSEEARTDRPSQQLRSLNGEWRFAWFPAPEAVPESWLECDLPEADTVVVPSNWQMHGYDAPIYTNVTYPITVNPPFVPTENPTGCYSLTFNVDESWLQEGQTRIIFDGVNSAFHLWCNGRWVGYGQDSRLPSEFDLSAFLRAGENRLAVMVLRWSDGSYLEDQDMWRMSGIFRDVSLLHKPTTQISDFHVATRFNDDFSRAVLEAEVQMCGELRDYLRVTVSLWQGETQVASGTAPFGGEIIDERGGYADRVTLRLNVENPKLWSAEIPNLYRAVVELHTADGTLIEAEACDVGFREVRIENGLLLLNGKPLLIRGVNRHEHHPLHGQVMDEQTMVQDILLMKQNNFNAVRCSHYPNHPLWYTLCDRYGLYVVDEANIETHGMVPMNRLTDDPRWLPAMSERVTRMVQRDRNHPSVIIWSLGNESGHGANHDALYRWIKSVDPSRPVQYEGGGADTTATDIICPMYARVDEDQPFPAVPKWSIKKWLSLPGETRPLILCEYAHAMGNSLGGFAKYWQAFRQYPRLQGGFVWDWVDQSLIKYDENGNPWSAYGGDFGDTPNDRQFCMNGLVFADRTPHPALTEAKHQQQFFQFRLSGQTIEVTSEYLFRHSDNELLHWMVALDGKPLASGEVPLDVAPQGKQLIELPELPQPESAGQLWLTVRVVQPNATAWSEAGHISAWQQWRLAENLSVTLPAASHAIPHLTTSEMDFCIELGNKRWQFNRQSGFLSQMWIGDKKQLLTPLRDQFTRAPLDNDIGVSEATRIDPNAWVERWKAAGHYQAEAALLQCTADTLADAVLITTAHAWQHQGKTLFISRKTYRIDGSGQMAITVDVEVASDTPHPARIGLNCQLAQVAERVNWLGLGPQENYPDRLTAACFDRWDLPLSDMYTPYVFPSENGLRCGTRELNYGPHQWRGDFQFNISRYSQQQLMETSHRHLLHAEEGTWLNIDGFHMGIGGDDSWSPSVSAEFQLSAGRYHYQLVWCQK
Chain of Paired box protein Pax-8 (Q06710 whole entry): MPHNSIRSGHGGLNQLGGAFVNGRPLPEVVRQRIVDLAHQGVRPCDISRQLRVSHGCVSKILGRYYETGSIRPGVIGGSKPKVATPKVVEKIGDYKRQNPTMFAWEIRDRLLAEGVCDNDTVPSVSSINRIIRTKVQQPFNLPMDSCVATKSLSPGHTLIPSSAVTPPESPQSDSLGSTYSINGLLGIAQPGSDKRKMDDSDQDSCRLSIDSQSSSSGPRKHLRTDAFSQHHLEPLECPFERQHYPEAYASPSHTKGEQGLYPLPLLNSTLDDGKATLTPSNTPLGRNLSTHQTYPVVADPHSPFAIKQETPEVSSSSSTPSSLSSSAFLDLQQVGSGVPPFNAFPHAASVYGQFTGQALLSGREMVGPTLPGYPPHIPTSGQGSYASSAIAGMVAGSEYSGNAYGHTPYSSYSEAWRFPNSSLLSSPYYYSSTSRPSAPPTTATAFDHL

CC(C)(C)c1cc(CCC(=O)NNC(=S)NC(=O)c2ccccc2)cc(C(C)(C)C)c1O
AC50 (INS1 [1]): 3.99 µM (active) | EC50 [2]: 0.382 µM (active) | EC50 [3]: 15.7 µM (active) | IC50 [4]: 35.5 µM (not active) | EC50 [5]: 3.35 µM (active) | EC50 (Beta-galactosidase): > 40 µM (inactive) | IC50 (Leucine aminopeptidase): 32.2 µM (active)

Nc1cccc(C#Cc2ccc3c(=O)c4ccccc4oc3c2)c1
EC50 [6]: 0.245 µM (active)

CC(=O)Nc1ccc(S(=O)(=O)NC2=C(N3CCN(C)CC3)C(=O)c3ccccc3C2=O)cc1
IC50 [7]: 29.7 µM (active) | EC50 [8]: 11.1 µM (active) | EC50 [9]: 15.6 µM (active) | EC50 [10]: > 120 µM (not active) | AC50 (INS1 [1]): 3.99 µM (active) | AC50 [11]: 3.65 µM (active)

Cc1ccc(S(=O)(=O)N(C)C[C@H]2Oc3c(NC(=O)Nc4cccc5ccccc45)cccc3C(=O)N([C@@H](C)CO)C[C@@H]2C)cc1
AC50 (INS1 [12]): 38.8 µM (active) | AC50 (Paired box protein Pax-8): 5.94 µM (active) | AC50 [13]: > 195 µM (inactive) | AC50 (INS1 [14]): 45.6 µM (active)

O=C(c1csc2ccccc12)N1CCN(c2ccnc3cc(Cl)ccc23)CC1
AC50 (Candida albicans [15]): 0.946 µM (active) | AC50 (NIH3T3): 4.47 µM (active) | AC50 (Candida albicans [16]): 2.72 µM (active) | AC50 (Candida albicans [17]): 1.69 µM (active) | AC50 (Candida albicans [18]): 106 µM (active)

COc1ccc(/C=C/c2nc3ccccc3c(=O)n2Cc2ccccc2)cc1OC
IC50 (Hexokinase HKDC1): > 80 µM (inactive) | IC50 (Hexokinase-1): > 80 µM (inactive)
